# Assay results reported in patent US20220370406A1, “METHOD OF TREATING STIMULANT USE DISORDER USING A COMBINATION OF TOPIRAMATE AND PHENTERMINE” (University of Kentucky Research Foundation, priority 2019, published 2022).
# Test system: participants with cocaine use disorder
# Test: Medical safety session: subjective effects questionnaires after intranasal cocaine
# Type: in vivo, human
# Procedure: Participants completed one, single-blind medical safety session to ensure they could tolerate intranasal cocaine. Intranasal cocaine doses (i.e., 0 [placebo], 10, 20, 40 and 80 mg) were administered in ascending order. Placebo (i.e., 0 mg) was administered at 0900 hours. The subjective-effect questionnaires and cardiovascular measures described below were completed 30 minutes before placebo administration (i.e., 0830 hours), immediately following and at 15-minute intervals for 45 minutes. Subsequent cocaine administrations were separated by 45 minutes.
# [1] = Cocaine 40 mg, Topiramate (0 mg/day) group
# [2] = Cocaine 40 mg, Topiramate (50 mg/day) group
# [3] = Cocaine 40 mg, Topiramate (100 mg/day) group
# [4] = Cocaine 80 mg, Topiramate (0 mg/day) group
# [5] = Cocaine 80 mg, Topiramate (50 mg/day) group
# [6] = Cocaine 80 mg, Topiramate (100 mg/day) group
structure (smiles),measurement,setting,value
"COC(=O)[C@H]1[C@@H](OC(=O)c2ccccc2)C[C@@H]2CC[C@H]1N2C [Cocaine, cocaine]","Adjective Rating Scales Sedative, mean peak effect",[1],3.2
same,"Adjective Rating Scales Stimulant, mean peak effect",[1],0.0
same,"Drug-Effect Questionnaire Active-Alert-Energetic, mean peak effect",[1],26.0
same,"Drug-Effect Questionnaire Any Effect, mean peak effect",[1],33.3
same,"Drug-Effect Questionnaire Bad Effects, mean peak effect",[1],9.0
same,"Drug-Effect Questionnaire Euphoric, mean peak effect",[1],10.6
same,"Drug-Effect Questionnaire Good Effects, mean peak effect",[1],33.9
same,"Drug-Effect Questionnaire High, mean peak effect",[1],29.5
same,"Drug-Effect Questionnaire Irregular Heart Beat, mean peak effect",[1],7.4
same,"Drug-Effect Questionnaire Like Drug, mean peak effect",[1],36.1
same,"Drug-Effect Questionnaire Nausea-Queasy-Sick, mean peak effect",[1],3.2
same,"Drug-Effect Questionnaire Nervous-Anxious, mean peak effect",[1],10.1
same,"Drug-Effect Questionnaire Performance Impaired, mean peak effect",[1],10.7
same,"Drug-Effect Questionnaire Performance Improved, mean peak effect",[1],10.7
same,"Drug-Effect Questionnaire Restless, mean peak effect",[1],10.4
same,"Drug-Effect Questionnaire Rush, mean peak effect",[1],28.1
same,"Drug-Effect Questionnaire Shaky-Jittery, mean peak effect",[1],9.7
same,"Drug-Effect Questionnaire Sluggish-Fatigued-Lazy, mean peak effect",[1],9.0
same,"Drug-Effect Questionnaire Stimulated, mean peak effect",[1],21.1
same,"Drug-Effect Questionnaire Talkative-Friendly, mean peak effect",[1],16.7
same,"Drug-Effect Questionnaire Willing to Pay For, mean peak effect",[1],32.8
same,"Drug-Effect Questionnaire Willing to Take Again, mean peak effect",[1],40.6
same,"Adjective Rating Scales Sedative, mean peak effect",[2],2.1
same,"Adjective Rating Scales Stimulant, mean peak effect",[2],10.1
same,"Drug-Effect Questionnaire Active-Alert-Energetic, mean peak effect",[2],24.7
same,"Drug-Effect Questionnaire Any Effect, mean peak effect",[2],19.3
same,"Drug-Effect Questionnaire Bad Effects, mean peak effect",[2],7.2
same,"Drug-Effect Questionnaire Euphoric, mean peak effect",[2],6.2
same,"Drug-Effect Questionnaire Good Effects, mean peak effect",[2],17.0
same,"Drug-Effect Questionnaire High, mean peak effect",[2],29.9
same,"Drug-Effect Questionnaire Irregular Heart Beat, mean peak effect",[2],6.0
same,"Drug-Effect Questionnaire Like Drug, mean peak effect",[2],16.7
same,"Drug-Effect Questionnaire Nausea-Queasy-Sick, mean peak effect",[2],9.8
same,"Drug-Effect Questionnaire Nervous-Anxious, mean peak effect",[2],1.8
same,"Drug-Effect Questionnaire Performance Impaired, mean peak effect",[2],1.9
same,"Drug-Effect Questionnaire Performance Improved, mean peak effect",[2],10.6
same,"Drug-Effect Questionnaire Restless, mean peak effect",[2],2.9
same,"Drug-Effect Questionnaire Rush, mean peak effect",[2],30.0
same,"Drug-Effect Questionnaire Shaky-Jittery, mean peak effect",[2],2.8
same,"Drug-Effect Questionnaire Sluggish-Fatigued-Lazy, mean peak effect",[2],0.1
same,"Drug-Effect Questionnaire Stimulated, mean peak effect",[2],22.3
same,"Drug-Effect Questionnaire Talkative-Friendly, mean peak effect",[2],13.6
same,"Drug-Effect Questionnaire Willing to Pay For, mean peak effect",[2],17.0
same,"Drug-Effect Questionnaire Willing to Take Again, mean peak effect",[2],17.4
same,"Adjective Rating Scales Sedative, mean peak effect",[3],5.1
same,"Adjective Rating Scales Stimulant, mean peak effect",[3],11.8
same,"Drug-Effect Questionnaire Active-Alert-Energetic, mean peak effect",[3],13.8
same,"Drug-Effect Questionnaire Any Effect, mean peak effect",[3],22.1
same,"Drug-Effect Questionnaire Bad Effects, mean peak effect",[3],3.0
same,"Drug-Effect Questionnaire Euphoric, mean peak effect",[3],6.7
same,"Drug-Effect Questionnaire Good Effects, mean peak effect",[3],24.0
same,"Drug-Effect Questionnaire High, mean peak effect",[3],23.6
same,"Drug-Effect Questionnaire Irregular Heart Beat, mean peak effect",[3],9.0
same,"Drug-Effect Questionnaire Like Drug, mean peak effect",[3],20.8
same,"Drug-Effect Questionnaire Nausea-Queasy-Sick, mean peak effect",[3],16.2
same,"Drug-Effect Questionnaire Nervous-Anxious, mean peak effect",[3],8.1
same,"Drug-Effect Questionnaire Performance Impaired, mean peak effect",[3],4.1
same,"Drug-Effect Questionnaire Performance Improved, mean peak effect",[3],5.0
same,"Drug-Effect Questionnaire Restless, mean peak effect",[3],9.1
same,"Drug-Effect Questionnaire Rush, mean peak effect",[3],20.1
same,"Drug-Effect Questionnaire Shaky-Jittery, mean peak effect",[3],8.7
same,"Drug-Effect Questionnaire Sluggish-Fatigued-Lazy, mean peak effect",[3],9.1
same,"Drug-Effect Questionnaire Stimulated, mean peak effect",[3],16.5
same,"Drug-Effect Questionnaire Talkative-Friendly, mean peak effect",[3],13.2
same,"Drug-Effect Questionnaire Willing to Pay For, mean peak effect",[3],15.0
same,"Drug-Effect Questionnaire Willing to Take Again, mean peak effect",[3],16.4
same,"Adjective Rating Scales Sedative, mean peak effect",[4],4.1
same,"Adjective Rating Scales Stimulant, mean peak effect",[4],8.5
same,"Drug-Effect Questionnaire Active-Alert-Energetic, mean peak effect",[4],25.6
same,"Drug-Effect Questionnaire Any Effect, mean peak effect",[4],39.1
same,"Drug-Effect Questionnaire Bad Effects, mean peak effect",[4],8.2
same,"Drug-Effect Questionnaire Euphoric, mean peak effect",[4],10.5
same,"Drug-Effect Questionnaire Good Effects, mean peak effect",[4],33.3
same,"Drug-Effect Questionnaire High, mean peak effect",[4],27.7
same,"Drug-Effect Questionnaire Irregular Heart Beat, mean peak effect",[4],14.4
same,"Drug-Effect Questionnaire Like Drug, mean peak effect",[4],34.6
same,"Drug-Effect Questionnaire Nausea-Queasy-Sick, mean peak effect",[4],8.8
same,"Drug-Effect Questionnaire Nervous-Anxious, mean peak effect",[4],12.1
same,"Drug-Effect Questionnaire Performance Impaired, mean peak effect",[4],10.5
same,"Drug-Effect Questionnaire Performance Improved, mean peak effect",[4],11.5
same,"Drug-Effect Questionnaire Restless, mean peak effect",[4],10.1
same,"Drug-Effect Questionnaire Rush, mean peak effect",[4],27.3
same,"Drug-Effect Questionnaire Shaky-Jittery, mean peak effect",[4],13.8
same,"Drug-Effect Questionnaire Sluggish-Fatigued-Lazy, mean peak effect",[4],5.7
same,"Drug-Effect Questionnaire Stimulated, mean peak effect",[4],21.1
same,"Drug-Effect Questionnaire Talkative-Friendly, mean peak effect",[4],17.9
same,"Drug-Effect Questionnaire Willing to Pay For, mean peak effect",[4],30.5
same,"Drug-Effect Questionnaire Willing to Take Again, mean peak effect",[4],38.4
same,"Adjective Rating Scales Sedative, mean peak effect",[5],2.4
same,"Adjective Rating Scales Stimulant, mean peak effect",[5],13.2
same,"Drug-Effect Questionnaire Active-Alert-Energetic, mean peak effect",[5],31.4
same,"Drug-Effect Questionnaire Any Effect, mean peak effect",[5],29.6
same,"Drug-Effect Questionnaire Bad Effects, mean peak effect",[5],10.4
same,"Drug-Effect Questionnaire Euphoric, mean peak effect",[5],14.7
same,"Drug-Effect Questionnaire Good Effects, mean peak effect",[5],24.0
same,"Drug-Effect Questionnaire High, mean peak effect",[5],31.8
same,"Drug-Effect Questionnaire Irregular Heart Beat, mean peak effect",[5],0.8
same,"Drug-Effect Questionnaire Like Drug, mean peak effect",[5],28.4
same,"Drug-Effect Questionnaire Nausea-Queasy-Sick, mean peak effect",[5],1.2
same,"Drug-Effect Questionnaire Nervous-Anxious, mean peak effect",[5],2.2
same,"Drug-Effect Questionnaire Performance Impaired, mean peak effect",[5],1.9
same,"Drug-Effect Questionnaire Performance Improved, mean peak effect",[5],11.2
same,"Drug-Effect Questionnaire Restless, mean peak effect",[5],7.8
same,"Drug-Effect Questionnaire Rush, mean peak effect",[5],28.4
same,"Drug-Effect Questionnaire Shaky-Jittery, mean peak effect",[5],4.8
same,"Drug-Effect Questionnaire Sluggish-Fatigued-Lazy, mean peak effect",[5],0.0
same,"Drug-Effect Questionnaire Stimulated, mean peak effect",[5],31.8
same,"Drug-Effect Questionnaire Talkative-Friendly, mean peak effect",[5],14.3
same,"Drug-Effect Questionnaire Willing to Pay For, mean peak effect",[5],30.6
same,"Drug-Effect Questionnaire Willing to Take Again, mean peak effect",[5],30.3
same,"Adjective Rating Scales Sedative, mean peak effect",[6],7.8
same,"Adjective Rating Scales Stimulant, mean peak effect",[6],15.7
same,"Drug-Effect Questionnaire Active-Alert-Energetic, mean peak effect",[6],24.5
same,"Drug-Effect Questionnaire Any Effect, mean peak effect",[6],39.5
same,"Drug-Effect Questionnaire Bad Effects, mean peak effect",[6],12.2
same,"Drug-Effect Questionnaire Euphoric, mean peak effect",[6],16.2
same,"Drug-Effect Questionnaire Good Effects, mean peak effect",[6],27.9
same,"Drug-Effect Questionnaire High, mean peak effect",[6],42.0
same,"Drug-Effect Questionnaire Irregular Heart Beat, mean peak effect",[6],24.1
same,"Drug-Effect Questionnaire Like Drug, mean peak effect",[6],32.4
same,"Drug-Effect Questionnaire Nausea-Queasy-Sick, mean peak effect",[6],20.5
same,"Drug-Effect Questionnaire Nervous-Anxious, mean peak effect",[6],22.9
same,"Drug-Effect Questionnaire Performance Impaired, mean peak effect",[6],12.9
same,"Drug-Effect Questionnaire Performance Improved, mean peak effect",[6],9.5
same,"Drug-Effect Questionnaire Restless, mean peak effect",[6],11.1
same,"Drug-Effect Questionnaire Rush, mean peak effect",[6],36.1
same,"Drug-Effect Questionnaire Shaky-Jittery, mean peak effect",[6],22.1
same,"Drug-Effect Questionnaire Sluggish-Fatigued-Lazy, mean peak effect",[6],22.0
same,"Drug-Effect Questionnaire Stimulated, mean peak effect",[6],31.1
same,"Drug-Effect Questionnaire Talkative-Friendly, mean peak effect",[6],16.1
same,"Drug-Effect Questionnaire Willing to Pay For, mean peak effect",[6],21.0
same,"Drug-Effect Questionnaire Willing to Take Again, mean peak effect",[6],33.6
